# The supplement of paper PMC10307832
# What was measured:
# Assay in all cases: relative viability (nuclei count vs DMSO), 5 days (fraction); higher = more cells survive
# [1] = compound: c1ccc2c(CCNc3ccc(Nc4ccncc4)cc3)c[nH]c2c1 [Serdemetan] + CS(=O)(=O)CCNCc1ccc(-c2ccc3ncnc(Nc4ccc(OCc5cccc(F)c5)c(Cl)c4)c3c2)o1 [Lapatinib] (partner 2 µM)
# In short: (§1)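 Lung cancer cell lines were seeded in 1536-well plates and dosed by pin tool the next day, with either a single drug or a fixed anchor-drug dose combined with five library-drug doses (not always all listed) spaced in √10 steps. Five days later, one step fixed the cells and stained their nuclei (final 0.05% Triton X-100, 1% formaldehyde, 1 ug/ml Hoechst), and nuclei were counted on 4× images. Relative viability is the nuclei count in treated wells divided by the count in vehicle wells, and each value is the median of duplicate plates.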
# [2] = compound: c1ccc2c(CCNc3ccc(Nc4ccncc4)cc3)c[nH]c2c1 [Serdemetan] + Cc1nc(NC(=O)N2CCC[C@H]2C(N)=O)sc1-c1ccnc(C(C)(C)C(F)(F)F)c1 [Alpelisib] (partner 2 µM)
# In short: as §1
# [3] = compound: C1CC(C2=C(C1)C3=C(N2)C=CC(=C3)Cl)C(=O)N [Selisistat] + CS(=O)(=O)CCNCc1ccc(-c2ccc3ncnc(Nc4ccc(OCc5cccc(F)c5)c(Cl)c4)c3c2)o1 [Lapatinib] (partner 2 µM)
# In short: as §1
# [4] = compound: C1CC(C2=C(C1)C3=C(N2)C=CC(=C3)Cl)C(=O)N [Selisistat] + CS(=O)(=O)N1CCN(Cc2cc3nc(-c4cccc5[nH]ncc45)nc(N4CCOCC4)c3s2)CC1 [Pictilisib] (partner 1 µM)
# In short: as §1
Cell Line,relative viability ([1]; first compound 0.04 µM),relative viability ([1]; first compound 0.1265 µM),relative viability ([1]; first compound 0.4 µM),relative viability ([1]; first compound 1.265 µM),relative viability ([1]; first compound 4 µM),relative viability ([2]; first compound 0.04 µM),relative viability ([2]; first compound 0.1265 µM),relative viability ([2]; first compound 0.4 µM),relative viability ([2]; first compound 1.265 µM),relative viability ([2]; first compound 4 µM),relative viability ([3]; first compound 0.4 µM),relative viability ([3]; first compound 1.265 µM),relative viability ([3]; first compound 4 µM),relative viability ([3]; first compound 12.65 µM),relative viability ([3]; first compound 40 µM),relative viability ([4]; first compound 0.4 µM),relative viability ([4]; first compound 1.265 µM),relative viability ([4]; first compound 4 µM),relative viability ([4]; first compound 12.65 µM),relative viability ([4]; first compound 40 µM)
BEN,0.623,0.704,0.592,0.359,0.556,0.929,1.02,0.987,0.99,0.824,0.677,0.683,0.471,0.603,0.548,0.581,0.578,0.459,0.548,0.521
NCI-H1666,0.853,0.656,0.613,0.573,0.498,1.22,1,0.891,0.794,0.807,0.751,0.574,0.437,0.589,0.472,0.421,0.401,0.312,0.423,0.318
LC-2-ad,0.916,1,0.954,–,0.913,0.987,0.804,0.803,–,0.806,1.01,0.968,0.803,0.833,1.04,0.538,0.424,0.333,0.426,0.565
SK-LU-1,0.758,0.772,0.822,0.781,0.612,1.14,1.07,0.944,0.758,0.669,0.924,0.825,0.936,0.958,0.867,0.65,0.637,0.429,0.695,0.635
COR-L 105,0.384,0.372,0.284,0.335,0.363,0.906,1.08,0.922,1.04,0.865,0.298,0.338,0.371,0.378,0.31,0.432,0.412,0.322,0.405,0.418
NCI-H1975,0.837,0.855,0.882,0.837,1.13,0.68,0.675,0.666,0.637,0.803,0.823,0.831,0.706,0.759,0.65,0.322,0.315,0.236,0.301,0.265
Calu-6,1.13,0.99,0.989,0.887,0.68,0.934,1.01,0.929,0.788,0.674,1.06,1.09,1.02,0.949,0.895,0.867,0.886,0.895,0.872,0.925
NCI-H1993,0.873,0.861,0.75,–,0.768,0.715,0.802,0.621,–,0.67,0.683,0.751,–,0.913,0.806,0.702,0.81,–,0.828,0.854
RERF-LC-KJ,0.757,0.811,0.826,0.8,0.754,0.804,0.832,0.777,0.801,0.643,0.857,0.854,0.793,0.811,0.831,0.6,0.436,0.432,0.471,0.48
NCI-H23,1.11,1.19,1.13,0.818,1.07,0.674,0.682,0.577,0.538,0.596,1.16,1.06,–,1.24,1,0.562,0.462,–,0.567,0.51
HCC-366,1.07,0.811,0.902,0.0523,0.0553,0.403,0.434,0.208,0.0495,0.0462,1.09,0.977,0.899,0.971,1.07,0.098,0.135,0.129,0.0936,0.207
EMC-BAC-2,0.909,0.899,0.92,0.732,0.841,0.727,0.712,0.727,0.662,0.548,0.869,0.875,0.848,0.894,0.848,0.551,0.53,0.477,0.577,0.524
NCI-H2405,1,1.06,1.17,1.07,0.963,0.881,0.918,0.826,0.772,0.543,1.01,–,–,1.03,1.09,0.431,–,–,0.441,0.431
NCI-H358,0.42,0.509,0.439,0.558,0.405,0.86,0.946,0.906,0.679,0.734,0.492,0.443,–,0.397,0.373,0.402,0.361,–,0.408,0.395
NCI-H1944,0.788,0.7,0.768,–,0.494,0.806,0.753,0.715,–,0.453,0.797,0.767,–,0.746,0.854,0.335,0.363,–,0.346,0.395
EPLC-272H,1.01,0.905,1.07,0.618,0.944,0.968,0.834,0.881,0.647,0.843,0.761,0.996,–,0.955,0.915,0.261,0.337,–,0.287,0.332
EBC-1,0.23,0.238,0.218,0.21,0.203,0.739,0.865,0.752,0.793,0.623,0.256,0.208,0.224,0.243,0.244,0.373,0.286,0.46,0.454,0.389

Cell Line,relative viability ([1]; first compound 0.04 µM),relative viability ([1]; first compound 0.1265 µM),relative viability ([1]; first compound 0.4 µM),relative viability ([1]; first compound 1.265 µM),relative viability ([1]; first compound 4 µM),relative viability ([2]; first compound 0.04 µM),relative viability ([2]; first compound 0.1265 µM),relative viability ([2]; first compound 0.4 µM),relative viability ([2]; first compound 1.265 µM),relative viability ([2]; first compound 4 µM),relative viability ([3]; first compound 0.4 µM),relative viability ([3]; first compound 1.265 µM),relative viability ([3]; first compound 4 µM),relative viability ([3]; first compound 12.65 µM),relative viability ([3]; first compound 40 µM),relative viability ([4]; first compound 0.4 µM),relative viability ([4]; first compound 1.265 µM),relative viability ([4]; first compound 4 µM),relative viability ([4]; first compound 12.65 µM),relative viability ([4]; first compound 40 µM)
NCI-H1915,0.967,0.995,1.03,0.955,0.965,1.04,1.06,1.01,0.503,0.802,0.967,0.969,0.918,0.897,1.02,0.913,0.965,0.533,0.892,0.95
NCI-H596,1.07,0.972,1.09,0.871,0.666,0.477,0.498,0.481,0.369,0.298,1.16,1.16,1.03,1.14,1.12,0.372,0.411,0.391,0.434,0.434
NCI-H322M,0.577,0.585,0.546,0.546,0.562,0.853,0.875,0.838,0.755,0.75,0.595,0.562,–,0.623,0.561,0.562,0.525,–,0.549,0.604
NCI-H1299,0.939,0.984,0.985,0.78,0.767,0.992,0.996,1.03,0.96,0.968,0.967,0.947,0.961,0.991,0.964,0.778,0.744,1.02,0.849,0.692
NCI-H2228,1.07,1.03,0.984,0.431,0.391,0.762,0.554,0.46,0.307,0.294,0.99,1.2,1.31,0.868,1.07,0.476,0.398,0.343,0.551,0.557
IA-LM,0.723,1,0.655,0.584,0.322,0.726,0.834,0.729,0.535,0.568,0.723,0.931,0.817,–,0.894,0.277,0.368,0.353,0.502,0.375
NCI-H647,1.06,1.11,1.1,0.669,0.475,1.16,1.2,1.05,0.762,0.671,1.19,1.07,–,0.993,1.17,0.488,–,0.289,0.422,0.361
SK-MES-1,0.416,0.503,0.466,0.381,0.387,0.836,0.792,0.74,0.834,0.526,0.479,0.525,0.411,0.504,0.426,0.37,0.309,0.315,0.329,0.366
NCI-H2170,0.322,0.298,0.285,0.268,0.273,0.776,0.854,0.833,0.721,0.811,0.265,0.272,0.268,0.28,0.253,0.323,0.338,0.275,0.303,0.378
NCI-H2085,0.814,0.779,0.74,0.649,0.501,0.952,0.911,0.801,0.573,0.585,0.818,0.797,0.725,0.753,0.724,0.524,0.406,0.454,0.575,0.467
SW 1573,1.09,1.11,1.05,0.93,0.596,0.7,0.791,0.722,0.463,0.385,1.14,1.02,1.02,1.04,1.12,0.557,0.594,0.426,0.419,0.513
NCI-H727,0.768,0.919,0.758,0.797,0.416,0.597,0.522,0.593,0.487,0.418,0.626,0.841,–,–,0.725,0.354,0.435,–,–,0.423
LOU-NH91,0.773,0.83,–,0.606,0.83,0.741,0.677,–,0.761,0.679,0.753,0.741,0.741,0.762,0.758,0.538,0.496,0.485,0.532,0.512
NCI-H3122,1,0.98,1,–,1.03,0.809,0.715,0.779,–,0.771,1.01,1.01,0.772,1.05,1.1,0.558,0.606,0.262,0.608,0.704
NCI-H460,0.878,0.936,0.866,0.659,0.132,0.506,0.415,0.333,0.171,0.0988,0.909,0.952,–,0.903,0.911,0.439,0.282,0.164,0.317,0.33
NCI-H650,0.779,0.844,1.05,0.667,0.669,0.965,1.15,1.11,0.92,0.67,1.09,–,0.916,0.941,1.11,0.746,–,1.11,0.594,0.807
NCI-H661,0.474,0.503,0.572,0.428,0.438,0.759,0.429,0.676,0.197,0.428,0.515,0.469,0.502,0.396,0.535,0.476,0.478,0.343,0.348,0.38
